Test results published in patent US20170216297A1, “EFFICIENT INHIBITION OF HSP27” (TECHNISCHE UNIVERSITAET DRESDEN, priority 2014, published 2017).
Read-outs that look alike come from different tables or passages of the source.

Columns and labels:
HSP27 [1] = target: T1, HSP27 (Homo sapiens, UniProt P04792); experiment: Capillary electrophoresis of the CS protein precipitates (precipitated citrate synthase as measure of HSP27 inhibition); assay type: biochemical; details: for times higher activity than BVDU for the inhibition of the HSP27 protein: 120 minutes
T1 sequence (P04792 whole entry): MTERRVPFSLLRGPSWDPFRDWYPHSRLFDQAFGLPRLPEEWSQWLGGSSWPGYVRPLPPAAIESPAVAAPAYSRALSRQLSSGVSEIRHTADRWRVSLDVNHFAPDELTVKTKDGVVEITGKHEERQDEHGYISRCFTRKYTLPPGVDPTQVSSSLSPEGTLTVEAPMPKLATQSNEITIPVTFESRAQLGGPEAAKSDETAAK
Description: (§1) Since the heat-denatured protein aggregates of the citrate synthase from Example 1 are not water-soluble, these can be separated completely from the supernatant by means of centrifugation at room temperature at 16,000×g, 10 min. By using capillary electrophoresis, the compositions of the separated precipitates can be shown and quantified. The relative quantity of protein of precipitated citrate synthase serves as a measure of the efficacy of the test substances.
(§2) In each case, 481 nmol/L HSP27 and 1.44 μmol/L citrate synthase in 40 mmol/L HEPES buffer, pH 7.4, were employed. The relative quantity of protein of the precipitated citrate synthase in each case was normalized using a defined quantity of BSA as internal standard. The relative quantity of protein that precipitated when using 750 μmol/L BVDU was set at 1. The other test substances (2 representatives of phenothiazine derivatives of general formula (V), 2 representatives of purine derivatives of formula (I) or (II)) were each employed at a concentration of 10 μmol/L.
as §1, with “Example 2” for “Example 1”
as §2, with “nM” for “nmol/L”, “thymine” for “purine”, “were” for “were each”, “μmol/L in each case.” for “μmol/L.”
Otherwise, the experiments were performed as described above: […]

RPMI-8226 cells = experiment: Development of resistance to bortezomib in RPMI-8226 cells; assay type: cell-based
Description: The cell line RPMI-8226 (DMSZ 402) is a “multiple myeloma” cell line and was chosen because bortezomib is employed as a standard therapy for multiple myeloma. RPMI-8226 cells respond to bortezomib, express HSP27 and develop resistance to Velcade. RPMI-8226 cells were seeded at a cell count of 100,000 cells/ml in each case and regularly passaged. […] In contrast, for RPMI 8226 cells that were treated with 30 μmol/L BVDU, a final cell count of 160,000 cells/ml was detected whereas the final cell count for the culture without the addition of an HSP27 inhibitor amounted to 350,000 cells/ml. As a control, RPMI 8226 cells were treated with the respective test substances alone, FIG. 4b.

HSP27 [2] = target: T1, HSP27; experiment: Spectrophotometric protein aggregation assay (citrate synthase heat denaturation, HSP27 chaperone function); assay type: biochemical; details: 43° C., 500 nm
Description: FIG. 1: a spectrophotometric protein aggregation assay at 43° C., a wavelength of 500 nm and a concentrations of the proteins: 1.44 μmol/L citrate synthase (CS), 481 nmol/L HSP27 (HSP) in a 40 mmol/L HEPES buffer (pH 7.4) during treatment with 14 or 28 μmol/L 2-(3-trichlorovinylphenylamino)-1,9-dihydropurin-6-one (CS+HSP+test substance no. 2), with 750 μmol/L BVDU (CS+HSP+BVDU) and without (CS+HSP; reference);
A known client protein (=substrate on which HSP27 acts as a chaperone) of HSP27 is citrate synthase. Citrate synthase is denatured when the temperature increases to 43° C. This heat denaturation is prevented or delayed by the presence of HSP27 [Jakob U, 1993]. By adding the novel active ingredients, their efficacy can thus be measured through the inhibition of the HSP27 chaperone function.
To determine the activity (i.e. the effect on the aggregation behaviour of the citrate synthase (CS) after thermal incubation) of 2-(3-trichlorovinylphenylamino)-1,9-dihydropurin-6-one in comparison to BVDU, four different batches containing 1.44 μmol/L CS, 481 nmol/L HSP27 (HSP) in a 40 mmol/L HEPES buffer (pH 7.4) were prepared and BVDU (750 μmol/L) or various concentrations of 2-(3-trichlorovinylphenylamino)-1,9-dihydropurin-6-one (14 μmol/L; 28 μmol/L) were added. The samples were then incubated at 43° C. and the aggregation behaviour of the CS was monitored in a spectrometer (PerkinElmer LS55, PerkinElmer Inc.) at a wavelength of 500 nm.
It can be seen from FIG. 1 that the protein citrate synthase (graph CS alone) is denatured by increasing the temperature to 43° C. and forms aggregates. The aggregation is measured in the spectrometer at 500 nm (light scattering by protein aggregates). The presence of HSP27 (HSP) counteracts the aggregation (cf. graph, CS+HSP). Since the addition of the test substances (BVDU and 2-(3-trichlorovinylphenylamino)-1,9-dihydropurin-6-one) inhibits the chaperone function of HSP27, the activity of the respective test substance can be determined by measuring the aggregation behaviour of the CS.

U937 cells = experiment: Development of resistance to bortezomib in U937 cells; assay type: cell-based; details: Examples 17/18: bortezomib 0.1-0.5 ng/ml, plus 0.75 μmol/L inhibitor
Description: For this purpose, U937 cells (histiocytic lymphoma) were cultured in DMEM culture medium (+10% FCS) at 37° C., 5% CO2 in an H2O-saturated atmosphere. 100,000 cells/ml were seeded and incubated with the cytostatic agent bortezomib (0.1 ng/ml) and the respective test substance (dosage in the current experiment: 1 μM/L acepromazine). The reference substance, BVDU, was employed at a concentration of 30 μM/L. The cells were in each case passaged before the cell count reached 1,000,000 cells/ml. At each passage, 100,000 cells/ml were again seeded and the dose of the cytostatic agent bortezomib was increased stepwise (0.1 ng/mL or 0.05 ng/mL). The concentration of the test substances remained constant. As a result of the stepwise increase in the dosage of the cytostatic agent, resistance developed in the U937 cells. The development of resistance is prevented or inhibited in the case of a positively tested HSP27 inhibitor. The experiments from Example 6 were repeated in the same way, wherein U937 cells (histiocytic lymphoma) are cultured in DMEM culture medium (+10% FCS) at 37° C., 5% CO2 in an H2O— saturated atmosphere. 100,000 cells/ml were seeded and incubated with an initial concentration of 0.2 ng/ml of the cytostatic agent bortezomib and both without an inhibitor and with acepromazine as an HSP27 inhibitor at a concentration of 1 μM/L. The reference substance, BVDU, was employed at a concentration of 30 μM/L. The cells were passaged in each case before the cell count reached 1,000,000 cells/ml. At each passage, 100,000 cells/ml were again seeded and the dose of the cytostatic agent bortezomib was increased stepwise by 0.1 ng/mL. The concentration of the test substance and the reference substance remained constant. As a result of the stepwise increase in the dosage of the cytostatic agent, resistance developed in the U937 cells. The development of resistance is prevented or inhibited in the case of a positively tested HSP27 inhibitor. The cell line U-937 is a histiocytic lymphoma (DSMZ ACC 5). This cell line also responds to treatment with bortezomib, expresses HSP27 and develops resistance to bortezomib. Bortezomib is not the standard therapy for this lymphoma, but is being discussed as a possible therapeutic agent. U-937 cells were seeded with a cell count of 100,000 cells/ml in each case and regularly passaged. […] At the end of the experiment, 70,000 living cells per ml medium could be detected. For the treatment with 30 μmol/L BVDU, a final cell count of 250,000 cells/ml was detected whereas the final cell count in the culture without the addition of an HSP27 inhibitor amounted to 450,000 cells/ml. As a control, U-937 cells were treated with the respective test substances alone, FIG. 10b.

HSP27 [3] = target: T1, HSP27; experiment: Bio-layer interferometry (ForteBio Octet Red 384, biotinylated HSP27 on SSA sensors); assay type: binding
Description: Bio-layer interferometry is a technique for detecting biomolecular interactions. It is an analytical technique that measures the optical interference of white light which is reflected by two surfaces: in each case, one surface consists of a layer of the immobilized target protein on the tip of the biosensor and one is an internal reference surface. The binding of ligands to the target protein alters the interference pattern and can be measured in real time.
For the measurements, an instrument of the ForteBio Octet Red 384 brand was used. The target protein HSP27 was biotinylated and bound to the appropriate sensors (SSA). […] The purine derivatives of general formula (I) or (II) pre-identified by means of in silico screening are employed for these measurements in a concentration range (KD) of between 333 μmol/L and 10 nmol/L.
For measurements by bio-layer interferometry, biotinylated HSP27 protein was first bound to Super-Streptavidin sensors (SSA, Fortebio). The loaded sensors were then incubated (“quenched”) with biocytin. As reference, unloaded SSA sensors were incubated with biocytin. In the case of a specific binding to HSP27 of the analyte to be measured, the loaded HSP27 sensor generates a stronger signal (response) than the concurrent reference sensor. After the “baseline” has been established by incubation with the reaction buffer (PBST 0.1% Tween 20 plus 3% DMSO), first the association and then the dissociation of the respective analyte is measured in real time. The analytes were measured in increasing concentrations in each case: 1.23-3.7-11.11-33.33-100-300 μM/l.

[4] = cited from earlier work
[5] = 10 μmol/L, 43° C. for 120 minutes, 750 μmol/L BVDU set at 1
[6] = bortezomib 0.1-0.3 ng/ml, plus 1 μM inhibitor
[7] = bortezomib 0.075-0.275 ng/ml, plus 1 μmol/L inhibitor
[8] = analytes 1.23-300 μM/l, PBST 0.1% Tween 20 plus 3% DMSO, read-out: Dissociation constant KD

Question: Which results are given for `O=c1[nH]c(Nc2cccc(C(Cl)=C(Cl)Cl)c2)nc2[nH]cnc12` [2-(3-trichlorovinylphenylamino)-1,9-dihydropurin-6-one]?
Answer: Rel. quantity of protein prec. CS (HSP27 [1]; [5]): 0.71; times higher activity than BVDU for the inhibition of the HSP27 protein (HSP27 [1]; 10 μmol/L): 53 times; development of resistance to bortezomib (RPMI-8226 cells; [6]): significantly inhibited; Inhibition of HSP27 chaperone function (CS aggregation), effect versus 750 μmol/L BVDU (HSP27 [2]; 14 μmol/L): comparable effect; Inhibition of HSP27 chaperone function (CS aggregation), effect versus 750 μmol/L BVDU (HSP27 [2]; 28 μmol/L): significantly more pronounced effect

Question: With `CCCCc1ccc(Nc2nc3c(ncn3COCCO)c(=O)[nH]2)cc1` [2-(4-butylphenylamino)-9-(2-hydroxyethoxymethyl)-1,9-dihydropurin-6-one] as the compound, how does the “Efficacy compared with BVDU” value (HSP27 [1]; 10 μmol/L vs 750 μmol/L BVDU, 43° C. for 120 minutes) read?
Answer: 69.0 x

Question: And the “Rel. quantity of protein prec. CS” value (HSP27 [1]; [5])?
Answer: 0.92

Question: What about the “times higher activity than BVDU for the inhibition of the HSP27 protein” value (HSP27 [1]; 10 μmol/L) of the same compound?
Answer: 69 times

Question: And the “development of resistance to bortezomib” value (U937 cells)?
Answer: significantly inhibited

Question: And the “development of resistance to bortezomib” value (RPMI-8226 cells; [6])?
Answer: significantly inhibited

Question: What about the Kd (HSP27 [3]; bio-layer interferometry, read-out: KD) of the same compound?
Answer: 15 µM

Question: With `Cc1cn(CC=CCNC(=O)Cc2ccc(-c3ccccc3)cc2)c(=O)[nH]c1=O` [2-biphenyl-4-yl-N-[4-(5-methyl-2,4-dioxo-3,4-dihydro-2H-pyrimidin-1-yl)-but-2-enyl]-acetamide] as the compound, how does the “Rel. quantity of protein prec. CS” value (HSP27 [1]; [5]) read?
Answer: 0.81

Question: What about the “times higher activity than BVDU for the inhibition of the HSP27 protein” value (HSP27 [1]; 10 μmol/L) of the same compound?
Answer: 61 times

Question: What about the “development of resistance to bortezomib” value (RPMI-8226 cells; [7]) of the same compound?
Answer: significantly inhibited

Question: And the Kd (HSP27 [3]; [8])?
Answer: 424 µM

Question: For `Cc1cn(CC=CCNC(=O)C2c3ccccc3Oc3ccccc32)c(=O)[nH]c1=O` [9H-xanthene-9-carboxylic acid [4-(5-methyl-2,4-dioxo-3,4-dihydro-2H-pyrimidin-1-yl)-but-2-enyl]amide], which “Rel. quantity of protein prec. CS” value (HSP27 [1]; [5]) is on record?
Answer: 0.65

Question: And the “times higher activity than BVDU for the inhibition of the HSP27 protein” value (HSP27 [1]; 10 μmol/L)?
Answer: 49 times

Question: And the “development of resistance to bortezomib” value (RPMI-8226 cells; [7])?
Answer: significantly inhibited

Question: And the Kd (HSP27 [3]; [8])?
Answer: 267 µM

Question: With `O=c1[nH]c(=O)n([C@H]2C[C@H](O)[C@@H](CO)O2)cc1/C=C/Br` [BVDU, (E)-5-(2-bromovinyl)-2′-deoxyuridine, reference compound] as the compound, how does the “Rel. quantity of protein prec. CS” value (HSP27 [1]; 750 μmol/L, 43° C. for 70 minutes, set at 1) read?
Answer: 1

Question: What about the “Rel. quantity of protein prec. CS” value (HSP27 [1]; 750 μmol/L, 43° C. for 120 minutes, set at 1) of the same compound?
Answer: 1

Question: And the tolerability in patients ([4]; increased administered dose of 760 mg/day)?
Answer: proved disadvantageous for low-weight patients

Question: And the “safety and efficacy in patients” value ([4]; oral, administered dose of 500 mg/day)?
Answer: works safely and efficiently

Question: What about the “Inhibition of HSP27 chaperone function (CS aggregation)” value (HSP27 [2]; 750 μmol/L) of the same compound?
Answer: partially cancels the chaperone function of HSP27
